{
  "source": "paper PMC6277434",
  "about": "“Discovery of a potent HMG-CoA reductase degrader that eliminates statin-induced reductase accumulation and lowers cholesterol” (Nature Communications, 2018)",
  "key": {"[1]": {"molecular_target": "T1, HMGCR (TM1-8)-GFP (Cricetulus griseus, UniProt P00347)", "T1 sequence (P00347 1-346)": "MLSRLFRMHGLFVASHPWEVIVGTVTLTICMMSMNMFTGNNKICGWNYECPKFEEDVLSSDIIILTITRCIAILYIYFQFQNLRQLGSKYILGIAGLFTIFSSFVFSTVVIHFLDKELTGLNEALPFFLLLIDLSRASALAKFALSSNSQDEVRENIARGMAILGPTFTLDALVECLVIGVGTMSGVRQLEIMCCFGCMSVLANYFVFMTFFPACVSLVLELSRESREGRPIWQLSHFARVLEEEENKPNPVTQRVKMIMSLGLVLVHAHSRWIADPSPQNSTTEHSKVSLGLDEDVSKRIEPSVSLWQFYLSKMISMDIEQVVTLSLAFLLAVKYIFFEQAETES", "assay": "HMGCR (TM1-8)-GFP fluorescent assay (high-content imaging) in CHG cells", "conditions": "16 h, DMSO-treated cells = 100", "method": "(§2) We thus generated a cell line stably expressing the transmembrane domain of HMGCR fused with green fluorescent protein (GFP) as a reporter (HMGCR (TM1-8)-GFP) (Fig. 2a).\n(§3) CHO-7 cells were transfected with pCMV-HMGCR (TM1-8)-GFP using FuGENE HD. Twenty-four hours, cells were switched to medium B supplemented with 5% FBS and selected in the presence of 1 mg ml^−1 G418 for 2 weeks. Surviving colonies were isolated and confirmed for GFP expression by immunoblotting and immunofluorescence. The resulting CHO-7/HMGCR (TM1-8)-GFP stable cell line (CHG) was maintained in medium B supplemented with 5% FBS and 200 μg ml^−1 G418.\n(§4) CHG cells were treated as described in figure legends. Briefly, cells were seeded at day 0 in 96-well black plate (3904, Corning) at a density of 1.5 × 10^4 cells per well, in medium B containing with 5% LPDS. Day 1, corresponding compounds were added as figure legends described in medium B with 5% LPDS, 1 μM lovastatin, 50 μM sodium mevalonate for 16 h. Then cells were fixed with 4% paraformaldehyde for 20 min, washed with PBS for three times, and stained with 2 μg ml^−1 Hoechst 33342.\n(§5) The fluorescent images (GFP and Hoechst channel) were captured using an Operatta High-Content Imaging System (PerkinElmer) with a ×20 objective. The cytoplasmic GFP fluorescence was measured with the Harmony Software (PerkinElmer). Five random selected filed per well were captured, and about 3000 cells were used to determine the mean cytoplasmic GFP fluorescent intensity per cell after subtracting background GFP intensity. The average GFP intensity of DMSO-treated cells was defined as 100."}, "[2]": {"test_system": "LXR signaling pathway", "parameters": "method as in earlier work", "conditions": "previous studies ref 2 (Yang, C. et al. J. Biol. Chem. 281, 27816-27826 (2006)); cited from earlier work"}, "[3]": {"molecular_target": "T2, HMGCR (Cricetulus griseus, UniProt P00347)", "T2 construct": "endogenous in cells; host or cells: CHO-7, CHG, SRD-13A, SRD-15", "T2 sequence (P00347 1-887)": "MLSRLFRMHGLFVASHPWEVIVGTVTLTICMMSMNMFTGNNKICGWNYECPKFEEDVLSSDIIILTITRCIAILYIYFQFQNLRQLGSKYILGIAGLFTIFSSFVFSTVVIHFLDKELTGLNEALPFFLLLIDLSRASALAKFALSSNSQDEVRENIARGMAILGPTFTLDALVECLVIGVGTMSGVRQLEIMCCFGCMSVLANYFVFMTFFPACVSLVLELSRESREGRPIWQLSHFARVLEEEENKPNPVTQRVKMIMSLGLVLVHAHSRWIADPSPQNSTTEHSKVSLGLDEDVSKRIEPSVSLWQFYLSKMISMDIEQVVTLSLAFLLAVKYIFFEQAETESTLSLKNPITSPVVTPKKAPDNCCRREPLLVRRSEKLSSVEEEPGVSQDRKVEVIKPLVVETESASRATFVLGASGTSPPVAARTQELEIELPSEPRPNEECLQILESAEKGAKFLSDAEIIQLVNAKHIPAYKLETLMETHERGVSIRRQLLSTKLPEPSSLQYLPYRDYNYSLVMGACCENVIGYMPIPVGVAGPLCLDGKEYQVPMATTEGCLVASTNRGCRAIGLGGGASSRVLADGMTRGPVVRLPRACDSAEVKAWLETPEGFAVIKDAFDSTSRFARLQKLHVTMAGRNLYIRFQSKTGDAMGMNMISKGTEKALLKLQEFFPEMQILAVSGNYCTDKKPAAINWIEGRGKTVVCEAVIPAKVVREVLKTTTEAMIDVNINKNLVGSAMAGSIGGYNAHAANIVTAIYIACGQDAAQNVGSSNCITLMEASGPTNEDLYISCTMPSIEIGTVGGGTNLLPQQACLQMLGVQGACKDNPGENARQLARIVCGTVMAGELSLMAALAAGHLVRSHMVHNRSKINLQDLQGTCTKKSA", "assay": "Immunoblotting of endogenous HMGCR protein in CHO-7 (or CHG) cells", "type": "cell-based, Chinese hamster", "conditions": "16 h; for endogenous HMGCR protein level (immunoblot), mean: CHG cells, DMSO = 100", "experimental": "CHO-7 (Chinese hamster ovary cell, a clone of CHO-K1 cell line selected for growth in LPDS) and Huh7 (a human hepatocellular carcinoma cell line), SRD-13A (a Scap-deficient CHO-7 cell line) and SRD-15 (an Insig-1 and Insig-2-deficient CHO-7 cell line) were generous gifts from Russell Debose-Boyd at UT Southwestern Medical Center, USA. All cells were grown in a monolayer at 37 °C with 5% CO2. Huh7 cells were maintained in medium A supplemented with 10% FBS. CHO-7 and SRD-15 cells were maintained in medium B supplemented with 5% FBS. SRD-13A cells were maintained in medium B with 5% FBS, 5 μg ml^−1 cholesterol, 1 mM sodium mevalonate, 10 μM sodium oleate. No cell lines used in this study were found in the database of commonly misidentified cell lines that is maintained by ICLAC and NCBI Biosample. The cell lines have not been authenticated recently. No test for mycoplasma contamination was performed.\n(§1) Cells were harvested and homogenized in the RIPA buffer (50 mM Tris-HCl, pH 8.0, 150 mM NaCl, 2 mM MgCl2, 1.5% NP-40, 0.1% SDS, and 0.5% sodium deoxycholate) supplemented with protease cocktail inhibitor, 10 μM MG-132, 10 μg ml^−1 leupeptin and 1 mM phenylmethylsulfonyl fluoride. The protein concentrations of lysates were determined using BCA method (Beyotime). Samples were mixed with the membrane protein solubilization buffer (62.5 mM Tris-HCl, pH 6.8, 15% SDS, 8 M urea, 10% glycerol, and 100 mM DTT) plus the 4× loading buffer (150 mM Tris-HCl, pH 6.8, 12% SDS, 30% glycerol, 6% 2-mercaptoethanol, and 0.02% bromophenol blue) and incubated for 30 min at 37 °C. Proteins were resolved by SDS-PAGE and transferred to nitrocellulose membranes (GE Healthcare). Immnoblots were blocked with 5% non-fat milk in TBS containing 0.075% Tween-20 (TBST) and probed with indicated antibodies overnight at 4 °C. After washing in TBST for five times, blots were incubated with HRP-conjugated secondary antibodies for 2 h at room temperature. Immunoreactivity was developed with Clarity Western ECL chemiluminescent substrates (170–5061, Bio-Rad). Western blot images were captured by Amersham Imager 600 (GE Healthcare), and integrated optical intensities of each band were quantified by Image-Pro Plus 6 software (Media Cybernetics). Uncropped blots are shown in Supplementary Figs. 9–13."}, "[4]": {"molecular_target": "T1, HMGCR (TM1-8)-GFP", "method": "as §2, §3, §4, §5"}, "[5]": {"test_system": "LXR signaling pathway", "assay": "RT-qPCR of LXR target genes (SREBP-1c, ABCA1, ABCG8) in Huh-7 cells", "type": "cell-based, human", "conditions": "16 h", "experimental": "Cells were treated as described in corresponding figure legends, then total RNA was extracted from cells or mouse livers using TRI Reagent (T9424, Sigma-Aldrich). Equal amounts of RNA from cells or mice receiving the same treatment were pooled were used for cDNA synthesis with oligo dT and reverse transcriptase MLV (Promega). Gene expression was analyzed by quantitative real-time PCR on a Stratagene Mx30005PTM Q-PCR Systems. The primers used were listed in Supplementary Tables 2–4. […]\npathway. a-c Huh-7 cells were treated with indicated compounds for 16 h and then harvested for total RNA isolation and RT-qPCR. Cells treated with LXR agonist T0901317 w ere used as positive controls. The relative mRNA levels of SREBP -1c (a), ABCA1 (b) and ABCG8 (c) were quantified . GAPDH was the reference gene. The relative mRNA level in DMSO-treated cells was defined as 1. Data are from 3 independent experiments and presented as mean ± SD.\n(1 picture or pasted object on this page, not shown here)"}, "[6]": {"molecular_target": "T1, HMGCR (TM1-8)-GFP", "assay": "Immunoblotting of overexpressed HMGCR (TM1-8)-GFP in CHG cells", "type": "cell-based, hamster", "parameters": "corresponding to the amino acids from 1 to 346 of hamster HMGCR; expressed in transfected cells", "conditions": "16 h, DMSO = 100", "experimental": "Fig. 2 A reporting system that measures HMGCR degradation. a Schematic of the HMGCR (TM1-8)-GFP fusion protein. […] Data are from three independent experiments and presented as mean ± SD. Source data are provided as a Source Data File.\nas §1"}},
  "note": "Where “and” joins values, the source holds several entries; their conditions need not be identical. Identical values can stand only once.",
  "data": [
    {"smiles": "CC(C)CCC[C@@H](C)[C@H]1CC[C@@]2(C)C3=C(CC[C@]12C)[C@@]1(C)CC[C@H](O)C(C)(C)[C@@H]1CC3", "note": "[24,25-DHL, 24,25-dihydrolanosterol, reference compound]", "values": [
      {"measurement": "HMGCR (TM1-8)-GFP fluorescent intensity, mean", "setting": "[1]; 0.001 uM", "result": 100},
      {"measurement": "HMGCR (TM1-8)-GFP fluorescent intensity, mean", "setting": "[1]; 0.0078 uM", "result": 100.168},
      {"measurement": "HMGCR (TM1-8)-GFP fluorescent intensity, mean", "setting": "[1]; 0.023 uM", "result": 100},
      {"measurement": "HMGCR (TM1-8)-GFP fluorescent intensity, mean", "setting": "[1]; 0.078 uM", "result": 97.2588},
      {"measurement": "HMGCR (TM1-8)-GFP fluorescent intensity, mean", "setting": "[1]; 0.234 uM", "result": 80.6542},
      {"measurement": "HMGCR (TM1-8)-GFP fluorescent intensity, mean", "setting": "[1]; 2.34 uM", "result": 45.713},
      {"measurement": "HMGCR (TM1-8)-GFP fluorescent intensity, mean", "setting": "[1]; 15.6 uM", "result": 10.4985},
      {"measurement": "HMGCR (TM1-8)-GFP fluorescent intensity, mean", "setting": "[1]; 31.2 uM", "result": 5},
      {"measurement": "activation of LXR", "setting": "[2]", "result": "no effect"},
      {"measurement": "endogenous HMGCR protein level (immunoblot), mean", "setting": "[3]; 0.3 uM", "result": 73.3548},
      {"measurement": "endogenous HMGCR protein level (immunoblot), mean", "setting": "[3]; 1 uM", "result": 35.9866},
      {"measurement": "endogenous HMGCR protein level (immunoblot), mean", "setting": "[3]; 3 uM", "result": 7.195},
      {"measurement": "EC50", "setting": "[3]; CHO-7 cells, read-out: EC50 to decrease endogenous HMGCR (dose–response immunoblotting)", "result": 1600, "unit": "nM"},
      {"measurement": "EC50", "setting": "[4]", "result": "~1500 nM and 1500 nM"},
      {"measurement": "expression of LXR target genes (SREBP-1c, ABCA1 and ABCG8) mRNA", "setting": "[5]", "result": "did not activate the LXR target genes"},
      {"measurement": "overexpressed HMGCR (TM1-8)-GFP protein level (anti-GFP immunoblot), mean", "setting": "[6]; 0.3 uM", "result": 87.2697},
      {"measurement": "overexpressed HMGCR (TM1-8)-GFP protein level (anti-GFP immunoblot), mean", "setting": "[6]; 1 uM", "result": 51.2487},
      {"measurement": "overexpressed HMGCR (TM1-8)-GFP protein level (anti-GFP immunoblot), mean", "setting": "[6]; 3 uM", "result": 6.898}
    ]}
  ]
}
